Measurements published in ChEMBL document CHEMBL5260832, “Hepatoprotective natural triterpenoids” (Eur J Med Chem, 2018).

What was measured:
[1] = test system: Mus musculus; experiment: Hepatoprotective activity against D-GaIN/LPS induced liver injury mouse model assessed as reduction in sALT at 100 mg/kg, ip relative to control; assay type: functional; set-up: scale not given: the % may be the effect or the level left
[2] = test system: Mus musculus; experiment: Hepatoprotective activity against D-GaIN/LPS induced liver injury mouse model assessed as reduction in sAST at 100 mg/kg, ip relative to control; assay type: functional; set-up: scale not given: the % may be the effect or the level left
[3] = test system: Hepatocyte; experiment: Hepatoprotective activity against H2O2-induced cell damage in rat hepatocyte assessed as reduction in cell growth; assay type: functional, cell-based
[4] = test system: L02; experiment: Protection against D-GalN-induced toxicity in L02 cells […] assessed as reduction in cell growth relative to control; assay type: functional, Homo sapiens; set-up: scale not given: the % may be the effect or the level left
[5] = test system: HepG2; experiment: Hepatoprotective activity against H2O2-induced human HepG2 cells assessed as increase in ALT level; assay type: functional
[6] = test system: HepG2; experiment: Hepatoprotective activity against H2O2-induced human HepG2 cells assessed as increase in AST level; assay type: functional
[7] = test system: HepG2; experiment: Hepatoprotective activity against H2O2-induced cell death in human HepG2 cells assessed as reduction in ALT level at 20 uM preincubated for 1 hr followed by H2O2-stimulation and measured after 24 hrs; assay type: functional
[8] = test system: HepG2; experiment: Hepatoprotective activity against H2O2-induced cell death in human HepG2 cells assessed as reduction in AST level at 20 uM preincubated for 1 hr followed by H2O2-stimulation and measured after 24 hrs; assay type: functional
[9] = Hepatotoxicity in D-GaIN induced Wistar rat assessed as change in GTP leakage level for 10 days relative to control; assay type: toxicity; details: in vivo, 240 h, time 10 day
[10] = Hepatotoxicity in D-GaIN induced Wistar rat assessed as change in induction of TAT level for 10 days relative to control; assay type: toxicity; set-up: concentration or dose not given beside the values; details: in vivo, 240 h, time 10 day
[11] = test system: Hepatocyte; experiment: Hepatoprotective activity against D-GaIN/TNFalpha-induced cell death in mouse hepatocyte at 50 uM relative to control; assay type: functional
[12] = test system: Hepatocyte; experiment: Hepatoprotective activity against D-GaIN/TNFalpha-induced cell death in mouse hepatocyte at 200 uM relative to control; assay type: functional
[13] = test system: Hepatocyte; experiment: Hepatoprotective activity against D-GaIN/TNFalpha-induced cell death in mouse hepatocyte at 100 uM relative to control; assay type: functional, cell-based; details: dose 100 µM
[14] = test system: L02; experiment: Hepatoprotective activity against D-GaIN-induced in human HL7702 cells assessed as cell damage at 10 uM relative to control; assay type: functional
[15] = Cytotoxicity against human HepG2 cells assessed as reduction in cell viability by SRB assay; assay type: toxicity, cell-based

## CC(C)=CCC[C@](C)(O)C1CC[C@]2(C)[C@@H]1[C@H](O[C@H]1O[C@@H](CO[C@H]3O[C@@H](CO)[C@H](O)[C@@H](O)[C@@H]3O)[C@H](O)[C@@H](O)[C@@H]1O)C[C@@H]1[C@@]3(C)CC[C@H](O[C@@H]4O[C@H](CO)[C@@H](O)[C@H](O)[C@H]4O[C@@H]4O[C@H](CO)[C@@H](O)[C@H](O)[C@H]4O)C[C@@H]3CC[C@]12C (stereo not given in full)
[1]
  Activity: 33%
[2]
  Activity: 40%

## CC1=C[C@]2(C=C([C@H]3CC[C@@]4(C)[C@@H]5CC[C@H]6C(C)(C)C(=O)C=C[C@@]67C[C@@]57CC[C@]34C)C(=O)N2)OC1=O
[3]
  EC50: 126 µM

## CC(=O)N[C@@H](CS)C(=O)O [ACETYLCYSTEINE]
[3]
  EC50: 106 µM

## CC(C)[C@]1(CO)CC[C@@H]([C@H]2[C@H](O)C[C@]3(C)[C@@H]2CC[C@@H]2[C@@]4(C)CC[C@H](O[C@@H]5O[C@H](CO)[C@@H](O)[C@H](O)[C@H]5O[C@@H]5O[C@H](CO)[C@@H](O)[C@H](O)[C@H]5O)C(C)(C)[C@@H]4CC[C@]23C)O1
[4]
  Activity: 22.2%

## CC(C)(O)[C@@H]1CC[C@@H]([C@H]2[C@H](O)C[C@]3(C)[C@@H]2CC[C@@H]2[C@@]4(C)CC[C@H](O[C@@H]5O[C@H](CO)[C@@H](O)[C@H](O)[C@H]5O[C@@H]5O[C@H](CO)[C@@H](O)[C@H](O)[C@H]5O)C(C)(C)[C@@H]4CC[C@]23C)O1
[4]
  Activity: 69.5%

## COC(=O)C(C)[C@@H](O)C(=O)C[C@@H](C)[C@H]1C[C@H](O)[C@@]2(C)[C@@H]3C(=O)C[C@H]4C(C)(C)[C@@H](O)CC[C@]4(C)[C@H]3C(=O)C[C@]12C (stereo not given in full)
[5]
  Activity: 18.51 U/L
[6]
  Activity: 19.5 U/L

## CC(C)=CC[C@@H](O)[C@@H](C)[C@H]1CC[C@@]2(C)C3=CC[C@H]4C(C)(C)[C@@H](O)CC[C@]4(C)C3=CC[C@]12C
[7]
  Activity: 23.22 U/L
[8]
  Activity: 32.36 U/L

## C[C@H]1[C@H](C)CC[C@@]2(C)[C@@H]1C1=CC[C@@H]3[C@@]4(C)CC[C@H](O)C(C)(C)[C@@H]4CC[C@@]3(C)[C@]1(C)C[C@@H]2O
[9]
  Activity: 46.7%
[10]
  Activity: 39.8%

## C=C(C)[C@@H]1C[C@H](O)C2=C(C(=O)C[C@]3(C)[C@@H]([C@H](C)CCC(=O)O)CC[C@@]23C)[C@@]1(C)CCC(=O)O
[7]
  Activity: 16.06 U/L
[8]
  Activity: 19.09 U/L

## CC1(C)CC[C@]2(C(=O)O[C@@H]3O[C@H](CO)[C@@H](O)[C@H](O)[C@H]3O)CC[C@]3(C)[C@H](C=C[C@@H]4[C@@]5(C)C[C@@H](O)[C@H](O)[C@@](C)(CO)[C@@H]5CC[C@]43C)[C@H]2[C@@H]1O
[11]
  Activity: 8%
[12]
  Activity: 8%
[13]
  Activity: 8%

## CC(C)=CCC[C@H](C(=O)O)[C@@H]1CC[C@]2(C)C3=C(CC[C@@]12C)[C@@]1(C)CCC(=O)C(C)(C)[C@@H]1CC3=O
[14]
  Activity: 25.6%

## CC(C)=CCC[C@H](C(=O)O)[C@@H]1CC[C@]2(C)C3=C(CC[C@@]12C)[C@@]1(C)CC[C@H](O)C(C)(C)[C@@H]1CC3
[14]
  Activity: 50.5%

## CC(=O)[C@H]1CC(=O)[C@@]2(C)C3=C(C(=O)C[C@]12C)[C@@]1(C)CC[C@H](O)C(C)(C)[C@@H]1C[C@@H]3O [LUCIDONE A]
[5]
  Activity: 17.46 U/L
[6]
  Activity: 21.18 U/L

## CC(C)=C[C@H]1C[C@@H]([C@@H]2CC[C@]3(C)C4=CC(=O)[C@H]5C(C)(C)[C@H](O)CC[C@]5(C)[C@H]4CC[C@@]23C)C(=O)O1
[14]
  Activity: 30.4%

## CC1=C[C@@]2(C[C@H]([C@H]3CC[C@@]4(C)[C@@H]5CC[C@H]6C(C)(C)[C@@H](O)C=C[C@@]67C[C@@]57CC[C@]34C)[C@H](O)O2)OC1=O
[15]
  EC50: 37.9 µM

## C[C@H]1[C@H](C)CC[C@@]2(C)[C@@H]1C1=CC[C@@H]3[C@@]4(C)CC[C@@H](O)C(C)(C)[C@@H]4CC[C@@]3(C)[C@]1(C)C[C@@H]2O
[9]
  Activity: 22.7%
[10]
  Activity: 48%
